# Test system: mouse tongue
# Assay: In vivo biostability / mucoadhesiveness on mouse tongue
# Set-up: species or system ICR mice
# Settings: after 60 minutes, high salivary flow; FIG. 19
# Method: Eight-week-old ICR mice were anesthetized with 100mg/kg of ketamine and 16.7 mg/kg of xylazine cocktail. 10 mg of the oral patch was applied to the tongue. 0.2 mg/kg of Pilocarpine was administered intraperitoneally to stimulate salivation. Tongue tissues were harvested at 30 and 60 minutes post-injection for SEM and fluorescence imaging.
substance,measurement,value
"unencapsulated FITC-BSA: FITC-labeled bovine serum albumin, not loaded in a patch",retention of FITC-BSA on the tongue surface,completely washed away
